These results are taken from patent US8637557B2, “Aminothiazole derivative” (Taisho Pharmaceutical Co., Ltd, priority 2009, dated 2014).

Some results are limits rather than exact numbers.

T1 sequence (P48736 whole entry): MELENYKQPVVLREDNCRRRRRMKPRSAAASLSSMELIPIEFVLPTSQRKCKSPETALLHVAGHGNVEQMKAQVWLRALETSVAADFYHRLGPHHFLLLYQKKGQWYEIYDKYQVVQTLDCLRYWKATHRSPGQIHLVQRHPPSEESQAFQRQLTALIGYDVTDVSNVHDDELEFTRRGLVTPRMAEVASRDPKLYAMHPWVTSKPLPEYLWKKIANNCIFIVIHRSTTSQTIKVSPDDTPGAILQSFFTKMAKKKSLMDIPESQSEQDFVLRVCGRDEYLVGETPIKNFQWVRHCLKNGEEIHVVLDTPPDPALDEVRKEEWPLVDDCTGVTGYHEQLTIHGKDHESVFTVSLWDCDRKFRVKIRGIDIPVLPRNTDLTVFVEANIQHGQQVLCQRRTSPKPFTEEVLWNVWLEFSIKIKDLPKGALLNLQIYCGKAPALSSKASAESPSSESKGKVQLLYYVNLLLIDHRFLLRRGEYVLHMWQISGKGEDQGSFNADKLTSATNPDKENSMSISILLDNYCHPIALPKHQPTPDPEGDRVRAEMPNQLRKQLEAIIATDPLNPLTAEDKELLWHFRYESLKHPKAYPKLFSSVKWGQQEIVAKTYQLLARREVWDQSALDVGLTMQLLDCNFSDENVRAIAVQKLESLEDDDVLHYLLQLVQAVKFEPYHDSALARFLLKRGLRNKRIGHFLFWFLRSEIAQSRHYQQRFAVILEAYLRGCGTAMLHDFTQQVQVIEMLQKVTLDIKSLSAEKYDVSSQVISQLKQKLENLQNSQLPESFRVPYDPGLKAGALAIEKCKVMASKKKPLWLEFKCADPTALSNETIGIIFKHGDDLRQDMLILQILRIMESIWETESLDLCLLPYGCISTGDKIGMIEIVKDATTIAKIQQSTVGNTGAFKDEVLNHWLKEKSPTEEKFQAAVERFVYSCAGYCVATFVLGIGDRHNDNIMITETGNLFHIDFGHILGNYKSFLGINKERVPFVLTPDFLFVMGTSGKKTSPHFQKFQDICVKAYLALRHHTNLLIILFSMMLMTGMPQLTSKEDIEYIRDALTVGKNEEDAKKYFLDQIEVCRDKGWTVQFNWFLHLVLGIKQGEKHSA

This assay concerns the target T1, human PI 3-kinase p120γ (Homo sapiens, UniProt P48736).
T1 construct: purchased Millipore Corporation
Kind of assay: PI 3-kinase p120γ enzyme activity inhibition test. Conditions: ATP 10.0 μM, PIP2-PS 5.0 μM, 30° C., 2 hours; read-out: PI3Kγ (IC50 value class). The format is biochemical. How it is done:
Using human PI 3-kinase p120γ (manufactured by Millipore Corporation) and a mixed micellized product (hereinafter abbreviated as PIP2-PS) of the substrate thereof, L-a-Phosphatidyl-D-myo-inositol-4,5-bisphosphate (product of Calbiochem, hereinafter abbreviated as PIP2), and L-a-Phosphatidyl-L-Serine (manufactured by Sigma, hereinafter abbreviated as PS), the compound of the present invention was examined for the inhibitory action on PI3 Kinase p120γ enzyme activity (Km=8.9 μM for ATP, Km=4.0 μM for PIP2-PS).
PIP2-PS was prepared by mixing 500 μM of PIP2 and 2.5 nM of PS and sonicating the mixture for 40 minutes while ice cooling to cause micellization. ATP (final concentration 10.0 μM), [γ-^33P] ATP (final concentration 10 μCi/ml), PIP2-PS (final concentration 5.0 μM) and DMSO solutions of the test compound in different concentrations (compound final concentration 1.0×10^−5 to 2.4×10^−12 M, DMSO final concentration 0.1%) were added to PI 3-kinase p120γ, stirred and reacted at 30° C. for 2 hours. Using Phospholipid-Coated FlashPlate Microplates, 96-Well and Phospholipid FlashPlate Coating Buffer (both manufactured by PerkinElmer Co., Ltd.), PIP2-PS and phosphorylated PIP2-PS were allowed to be adsorbed to the well wall of the plate and collected. The well was washed twice with PBS (Phosphate-Buffered Saline) and dried. The radioactivity was measured using Top Count NXT (manufactured by PerkinElmer Co., Ltd.), whereby the phosphorylated amount (a) of PIP2-PS at the time of compound addition was calculated.
The same procedure was carried out in the absence of the test compound and the phosphorylated amount (b) of PIP2-PS was calculated. Further, the same procedure was carried out in the absence of both of the substrate and the test compound, and the PIP2-PS phosphorylated amount (c) of the background was calculated.
The PI3 Kinase p120γ enzyme activity suppression rate of the compound was calculated by the following formula. Suppression rate (%)=[1−(a−c)/(b−c)]×100
More specifically, using the suppression rate by the test compound of different concentrations, the IC50 value was calculated according to the dose-dependent inhibition curve analyzed by a data analysis software Origin (Lightstone Corp.) and used as the inhibitory activity index.
The IC50 is the concentration that inhibits the measured activity by half. On to `Cc1nc(NC(=O)OCCC(=O)OC(C)(C)C)sc1-c1nc(-c2cccnc2)no1` [Example 129, Tert-butyl-3-[({4-methyl-5-[3-(pyridin-3-yl)-1,2,4-oxadiazol-5-yl]-1,3-thiazol-2-yl}carbamoyl)oxy]propanoate], for which the IC50 was under 100 nM. To `Cc1nc(NC(=O)NCCCOC(C)(C)C)sc1-c1nc(-c2cccnc2)no1` [Example 130] belongs under 100 nM. To `Cc1nc(NC(=O)NCCC(=O)N(C)C)sc1-c1nc(-c2cccnc2)no1` [Example 131] belongs under 100 nM. To `Cc1nc(NC(=O)NCCC(=O)NC(C)(C)C)sc1-c1nc(-c2cccnc2)no1` [Example 132] belongs under 100 nM; to `Cc1nc(NC(=O)NCCS(=O)(=O)NC(C)(C)C)sc1-c1nc(-c2cccnc2)no1` [Example 133], under 100 nM; to `Cc1nc(NC(=O)NCCNC(=O)OC(C)(C)C)sc1-c1nc(-c2cccnc2)no1` [Example 134], under 100 nM. `Cc1nc(NC(=O)NCCOC(=O)C(C)(C)C)sc1-c1nc(-c2cccnc2)no1` [Example 135]: the concentration for half-maximal inhibition (IC50) was under 100 nM. To `Cc1nc(NC(=O)NCCC(=O)O)sc1-c1nc(-c2cccnc2)no1` [Example 136] belongs under 100 nM; to `Cc1nc(NC(=O)N2CCC(O)CC2)sc1-c1nc(-c2cccnc2)no1` [Example 137], 500 to 10000 nM.

In the case of `Cc1nc(NC(=O)NCCN)sc1-c1nc(-c2cccnc2)no1` [Example 138], the IC50 is under 100 nM.

Take `Cc1nc(NC(=O)NCCNC(=O)C(C)(C)C)sc1-c1nc(-c2cccnc2)no1` [Example 139]: the IC50 was under 100 nM. To `Cc1nc(NC(=O)NCCC(=O)OC(C)C)sc1-c1nc(-c2cccnc2)no1` [Example 140] belongs under 100 nM. To `Cc1nc(NC(=O)NCCC(=O)OC(C)(C)C)sc1-c1nc(-c2cncnc2)no1` [Example 141] belongs under 100 nM; to `Cc1nc(NC(=O)NCCCN2CCOCC2)sc1-c1nc(-c2cccnc2)no1` [Example 142], under 100 nM.

Regarding `CCOC(=O)CC(C)NC(=O)Nc1nc(C)c(-c2nc(-c3cccnc3)no2)s1` (stereo not shown) [Example 143], the half-maximal inhibitory concentration (IC50) is under 100 nM. To `CCOC(=O)[C@H]1CCCC1NC(=O)Nc1nc(C)c(-c2nc(-c3cccnc3)no2)s1` (stereo partly shown) [Example 144] belongs under 100 nM; to `Cc1nc(NC(=O)NCCC(=O)N2CCOCC2)sc1-c1nc(-c2cccnc2)no1` [Example 145], under 100 nM; to `Cc1nc(N)sc1-c1nc(CC(F)(F)F)no1` [Example 146], under 100 nM. As for `Cc1nc(NC(=O)NCCC(=O)OC(C)(C)C)sc1-c1nc(CC(F)(F)F)no1` [Example 147], the figure is under 100 nM.

In the case of `Cc1nc(NC(=O)NCCCNC(C)(C)C)sc1-c1nc(-c2cccnc2)no1` [Example 148], the IC50 is under 100 nM.

On to `Cc1nc(NC(=O)NCCC(=O)NC(C)(C)CO)sc1-c1nc(-c2cccnc2)no1` [Example 149], for which the IC50 is under 100 nM. To `Cc1nc(NC(=O)NCCC(=O)N2CCC(O)CC2)sc1-c1nc(-c2cccnc2)no1` [Example 150] belongs under 100 nM; to `Cc1nc(NC(=O)NCCC(=O)OCCO)sc1-c1nc(-c2cccnc2)no1` [Example 151], under 100 nM.

As to `Cc1nc(NC(=O)NCCC(=O)NC(C)(CO)CO)sc1-c1nc(-c2cccnc2)no1` [Example 152], the IC50 is under 100 nM. As for `Cc1nc(NC(=O)NCCC(=O)OC(C)(C)C)sc1-c1nc(C2CCCCC2)no1` [Example 153], the figure is under 100 nM. To `COCCc1noc(-c2sc(NC(=O)NCCC(=O)OC(C)(C)C)nc2C)n1` [Example 154] belongs under 100 nM; to `Cc1nc(N)sc1-c1nc(CC(C)(C)CO)no1` [Example 156], under 100 nM; to `Cc1nc(NC(=O)NCCC(=O)OC(C)(C)C)sc1-c1nc(CC(C)(C)CO)no1` [Example 157], under 100 nM.

For `CCOC(=O)Nc1nc(C)c(-c2nc(CC(C)(C)CO)no2)s1` [Example 158], the IC50 is under 100 nM. To `Cc1nc(NC(=O)NCCCN2CCCC2=O)sc1-c1nc(CC(C)(C)CO)no1` [Example 159] belongs under 100 nM. As for `Cc1nc(NC(=O)NCCCOC(C)(C)C)sc1-c1nc(CC(C)(C)CO)no1` [Example 160], the figure is under 100 nM; as for `Cc1nc(NC(=O)NCCC(=O)NC(C)(C)C)sc1-c1nc(CC(C)(C)CO)no1` [Example 161], under 100 nM. As for `Cc1nc(NC(=O)NCCc2cn(C(C)C)cn2)sc1-c1nc(CC(C)(C)CO)no1` [Example 162], the figure is under 100 nM; as for `Cc1nc(NC(=O)CCNC(=O)OC(C)(C)C)sc1-c1nc(CC(C)(C)CO)no1` [Example 163], 100 to 500 nM; as for `Cc1nc(NC(=O)NCCC(=O)NC(C)(CO)CO)sc1-c1nc(CC(F)(F)F)no1` [Example 164], under 100 nM. For the molecule `Cc1nc(NC(=O)NCCC(=O)N2CCC(O)CC2)sc1-c1nc(CC(F)(F)F)no1` [Example 166], the IC50 is under 100 nM. To `COCCNC(=O)CCNC(=O)Nc1nc(C)c(-c2nc(CC(F)(F)F)no2)s1` [Example 167] belongs under 100 nM; to `Cc1nc(NC(=O)NCCC(=O)N2CCN(C(=O)OC(C)(C)C)CC2)sc1-c1nc(CC(F)(F)F)no1` [Example 168], 100 to 500 nM.

Consider `Cc1nc(NC(=O)NCCC(=O)N2CCNCC2)sc1-c1nc(CC(F)(F)F)no1` [Example 169], for which the 50% inhibitory concentration (IC50) was under 100 nM. To `Cc1nc(NC(=O)NCCC(=O)OC(C)(C)C)sc1-c1nc(CC(C)(C)O)no1` [Example 170] belongs under 100 nM; to `Cc1nc(NC(=O)NCCc2ccccn2)sc1-c1nc(-c2cccnc2)no1` [Example 171], under 100 nM; to `CCn1cnc(CCNC(=O)Nc2nc(C)c(-c3nc(-c4cccnc4)no3)s2)c1` [Example 172], under 100 nM. To `COCC(=O)Nc1nc(C)c(-c2nc(-c3cccc(CO)c3)no2)s1` [Example 173] belongs under 100 nM. As for `Cc1nc(NC(=O)NCC(C)O)sc1-c1nc(-c2cccc(O)c2)no1` (stereo not shown) [Example 174], the figure is under 100 nM; as for `Cc1nc(NC(=O)NCC(C)O)sc1-c1nc(-c2cccnc2)no1` (stereo not shown) [Example 175], under 100 nM; as for `Cc1nc(NC(=O)NCC(C)O)sc1-c1nc(-c2cncnc2)no1` (stereo not shown) [Example 176], under 100 nM.
